This note sets out measurements from PubChem BioAssay AID256 (DTP/NCI, 2004).

Where “and” joins values, the source holds several entries; their conditions need not be identical. Equal entries are not always repeated. Toxic doses and inconclusive results are not listed.

The test concerns CD2F1 mice, L1210 leukemia ip, survival T/C. The test is described as follows: NCI In Vivo Anticancer Drug Screen. Data for tumor model L1210 Leukemia (intraperitoneal) in CD2F1 (CDF1) mice. The note with it: endpoint: mean survival time, higher = longer survival. The essentials:
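Antitumor effect is scored in animals hosting a serially transplanted tumor. Values compare compound-dosed animals against vehicle-only controls as a simple quotient.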

Where [1] appears, read: dose: 100.0 mg/kg/injection, schedule: Q01DX009 (ip), vehicle: saline with Tween-80.
Where [2] appears, read: dose: 100.0 mg/kg/injection, schedule: Q04DX003 (ip), vehicle: saline with Tween-80.
Where [3] appears, read: dose: 200.0 mg/kg/injection, schedule: Q01DX009 (ip), vehicle: saline with Tween-80.
Where [4] appears, read: dose: 200.0 mg/kg/injection, schedule: Q04DX003 (ip), vehicle: saline with Tween-80.
[5] abbreviates: dose: 400.0 mg/kg/injection, schedule: Q04DX003 (ip), vehicle: saline with Tween-80.
Where [6] appears, read: dose: 100.0 mg/kg/injection, schedule: Q01DX009 (ip), vehicle: Klucel (hydroxypropylcellulose) (HPC).
Setting [7] is: dose: 200.0 mg/kg/injection, schedule: Q01DX009 (ip), vehicle: Klucel (hydroxypropylcellulose) (HPC).
Setting [8] is: dose: 12.5 mg/kg/injection, schedule: Q01DX009 (ip), vehicle: saline with Tween-80.
Where [9] appears, read: dose: 25.0 mg/kg/injection, schedule: Q01DX009 (ip), vehicle: saline with Tween-80.
Where [10] appears, read: dose: 50.0 mg/kg/injection, schedule: Q01DX009 (ip), vehicle: saline with Tween-80.

With `CNNCc1ccc(C(=O)NC(N)=O)cc1`, the T/C by setting is: (dose: 8.0 mg/kg/injection, schedule: Q03HX024 (ip), vehicle: saline) 124 % of control; (dose: 16.0 mg/kg/injection, schedule: Q01DX005 (iv), vehicle: saline) 123 % of control; (dose: 16.0 mg/kg/injection, schedule: Q03HX008 (ip), vehicle: saline) 112 % of control; (dose: 16.0 mg/kg/injection, schedule: Q03HX016 (ip), vehicle: saline) 110 % of control; (dose: 16.0 mg/kg/injection, schedule: Q03HX024 (ip), vehicle: saline) 124 % of control; (dose: 32.0 mg/kg/injection, schedule: Q01DX005 (iv), vehicle: saline) 119 % of control. Further, the T/C runs as follows: (dose: 32.0 mg/kg/injection, schedule: Q01DX008 (ip), vehicle: saline) 119 % of control; (dose: 32.0 mg/kg/injection, schedule: Q03HX008 (ip), vehicle: saline) 115 % of control; (dose: 32.0 mg/kg/injection, schedule: Q03HX016 (ip), vehicle: saline) 120 % of control; (dose: 64.0 mg/kg/injection, schedule: Q01DX005 (iv), vehicle: saline) 112 % of control; (dose: 64.0 mg/kg/injection, schedule: Q03HX008 (ip), vehicle: saline) 117 % of control; (dose: 64.0 mg/kg/injection, schedule: Q04DX003 (ip), vehicle: saline) 121 % of control. For the same compound, the T/C is 107 % of control (dose: 128.0 mg/kg/injection, schedule: Q01DX001 (ip), vehicle: saline); 103 % of control (dose: 128.0 mg/kg/injection, schedule: Q01DX001 (iv), vehicle: saline); 114 % of control (dose: 128.0 mg/kg/injection, schedule: Q01DX001 (oral), vehicle: saline); 122 % of control (dose: 128.0 mg/kg/injection, schedule: Q01DX005 (iv), vehicle: saline); 164 % of control (dose: 128.0 mg/kg/injection, schedule: Q01DX009 (oral), vehicle: saline); 118 % of control (dose: 128.0 mg/kg/injection, schedule: Q04DX003 (ip), vehicle: saline). Further, the T/C runs as follows: (dose: 128.0 mg/kg/injection, schedule: Q08DX002 (ip), vehicle: saline) 116 % of control; (dose: 222.0 mg/kg/injection, schedule: Q01DX Z (ip), vehicle: saline) 162 % of control; (dose: 256.0 mg/kg/injection, schedule: Q01DX001 (ip), vehicle: saline) 120 % of control; (dose: 256.0 mg/kg/injection, schedule: Q01DX001 (iv), vehicle: saline) 106 % of control; (dose: 256.0 mg/kg/injection, schedule: Q01DX001 (oral), vehicle: saline) 117 % of control; (dose: 256.0 mg/kg/injection, schedule: Q01DX009 (oral), vehicle: saline) 169 % of control. Further, the T/C (dose: 256.0 mg/kg/injection, schedule: Q04DX003 (ip), vehicle: saline) is 121 % of control; the T/C (dose: 256.0 mg/kg/injection, schedule: Q08DX002 (ip), vehicle: saline) is 123 % of control; the T/C (dose: 333.0 mg/kg/injection, schedule: Q01DX Z (ip), vehicle: saline) is 120 % of control; the T/C (dose: 512.0 mg/kg/injection, schedule: Q01DX001 (ip), vehicle: saline) is 124 % of control; the T/C (dose: 512.0 mg/kg/injection, schedule: Q01DX001 (iv), vehicle: saline) was 114 % of control; the T/C (dose: 512.0 mg/kg/injection, schedule: Q08DX002 (ip), vehicle: saline) was 118 % of control.
Take `CC(=O)C1=C(C)NC(C)=C(C(C)=O)C1C`: the T/C is 100 % of control under setting [1]; 93 % of control under setting [2]; 95 % of control under setting [3]; 97 % of control under setting [4]; 92 % of control under setting [5].
Consider `CNC(=O)c1n[nH]c(C)c1N`, for which the T/C is 97 % of control (dose: 25.0 mg/kg/injection, schedule: Q01DX009 (ip), vehicle: water); 98 % of control (dose: 50.0 mg/kg/injection, schedule: Q01DX009 (ip), vehicle: water); 101 % of control (dose: 100.0 mg/kg/injection, schedule: Q01DX009 (ip), vehicle: water); 98 % of control (dose: 200.0 mg/kg/injection, schedule: Q01DX009 (ip), vehicle: water); 101 % of control (dose: 400.0 mg/kg/injection, schedule: Q01DX009 (ip), vehicle: water).
Consider `O=C(Nc1cc(S(=O)(=O)O)ccc1Oc1ccccc1Cl)Nc1cc(S(=O)(=O)O)ccc1Oc1ccccc1Cl`, for which the T/C reads like this: under setting [6], 101 % of control; under setting [2], 95 % of control; under setting [7], 98 % of control; under setting [4], 95 % of control; (dose: 400.0 mg/kg/injection, schedule: Q01DX009 (ip), vehicle: Klucel (hydroxypropylcellulose) (HPC)) 97 % of control; under setting [5], 98 % of control.
For the compound `CS(=O)(=O)Nc1ccc(NS(C)(=O)=O)cc1`, the T/C by setting is: under setting [2], 98 % of control; under setting [4], 102 % of control; under setting [5], 97 % of control.
Turning to `O=C(Nc1ccc(C2=NCCN2)cc1)Nc1cccc(NC(=O)Nc2ccc(C3=NCCN3)cc2)c1`, the T/C runs as follows: (dose: 1.8 mg/kg/injection, schedule: Q01DX008 (iv), vehicle: other) 103 % of control; (dose: 3.75 mg/kg/injection, schedule: Q01DX008 (iv), vehicle: other) 103 % of control.
For the compound `O=[N+]([O-])C=C(S)S`, the T/C (dose: 25.0 mg/kg/injection, schedule: Q01DX009 (ip), vehicle: Klucel (hydroxypropylcellulose) (HPC)) was 111 % of control; the T/C (dose: 50.0 mg/kg/injection, schedule: Q01DX009 (ip), vehicle: Klucel (hydroxypropylcellulose) (HPC)) was 98 % of control; the T/C under setting [6] is 93 % of control; the T/C under setting [7] was 90 % of control.
As to `CC(C#N)(C#N)N=Nc1ccc(Cl)cc1Cl`, the T/C is 96 % of control and 102 % of control under setting [8]; 100 % of control and 104 % of control under setting [9]; 98 % of control and 107 % of control under setting [10]; 101 % of control and 107 % of control under setting [1]; 101 % of control and 111 % of control under setting [3]; 113 % of control and 102 % of control (dose: 400.0 mg/kg/injection, schedule: Q01DX009 (ip), vehicle: saline with Tween-80).
For `CSc1ccc2c(c1)C(N1CCN(C)CC1)Cc1ccccc1S2` (stereo not drawn), the T/C is, setting by setting: (dose: 1.56 mg/kg/injection, schedule: Q01DX009 (ip), vehicle: saline with Tween-80) 112 % of control; (dose: 3.12 mg/kg/injection, schedule: Q01DX009 (ip), vehicle: saline with Tween-80) 118 % of control and 121 % of control; (dose: 6.25 mg/kg/injection, schedule: Q01DX009 (ip), vehicle: saline with Tween-80) 116 % of control and 122 % of control; under setting [8], 115 % of control and 120 % of control; under setting [9], 122 % of control and 108 % of control; under setting [10], 114 % of control.
With `C=CCNC(=O)C[n+]1cccc(C(=O)NC)c1`, the T/C (dose: 100.0 mg/kg/injection, schedule: Q04DX003 (ip), vehicle: saline) was 100 % of control; the T/C (dose: 200.0 mg/kg/injection, schedule: Q04DX003 (ip), vehicle: saline) is 102 % of control; the T/C (dose: 400.0 mg/kg/injection, schedule: Q04DX003 (ip), vehicle: saline) is 102 % of control.
Take `C=C(Br)CSC#N`: the T/C is 96 % of control under setting [2], 112 % of control under setting [4] and 96 % of control under setting [5].
